Laboratory results published in US20230339927A1, “ATR INHIBITORS AND USES THEREOF” (ANTENGENE DISCOVERY LIMITED, priority 2020, published 2023).

What was measured:
[1] = test system: LoVo (CCL-229) human colorectal cancer cells; test: Tumor cell anti-proliferation assay (CTG assay); assay type: cell-based; conditions: 96 h incubation, CellTiter-Glo, IC50 (Y=50%)
Text: Assay 2: Tumor Cell Anti-proliferation Assay (CTG Assay)
Human colorectal cancer cells HT-29 (HTB-38) and LoVo (CCL-229) were selected for the CTG assay, the two cell lines were originally obtained from the American Type Culture Collection (ATCC). Add FBS and appropriate additives into base medium to prepare complete medium, then briefly rinse the cell layer with 0.25% (w/v) Trypsin-0.038% (w/v) EDTA solution to remove all traces of serum that contains trypsin inhibitor, after that, add appropriate volume of Trypsin-EDTA solution to flask and observe cells under an inverted microscope until cell layer is dispersed, at last, add appropriate volume of complete growth medium and aspirate cells by gently pipetting. Collect and count numbers with Vi-cell XR and adjust cell density, seed cells into 96-well opaque-walled clear bottom tissue-culture treated plates in the CO2 incubator for 20-24 hours. All the test compounds will be at 10 mM in DMSO. Compounds are then added to the cell media in 3-fold serial dilutions, the final DMSO concentration is 0.5%. Incubate plates for 96 h at 5% CO2, 37° C. Before the measurement, transfer the appropriate volume of CellTiter-Glo Buffer into the amber bottle containing CellTiter-Glo substrate to reconstitute the lyophilized enzyme/substrate mixture, mix gently, this forms the CellTiter-Glo Reagent (Promega Cat. No. G7573). Equilibrate the plate and its contents to room temperature for approximately 30 minutes, then add 100 µL of CellTiter-Glo Reagent to the assay plate, mix contents for 2 minutes on an orbital shaker to induce cell lysis, incubate at room temperature for 10 minutes to stabilize luminescent signal, at last paste the clear bottom with white back seal and record luminescence with Enspire. IC50 and GI50 values were calculated with XLFit curve fitting software using 4 Parameter Logistic Model Y=Bottom + (Top-Bottom)/(1+(IC50/X)^HillSlope).
The following Table 3 provides the IC50 (Y=50%) values for exemplary compounds of Formula (I).

ATR kinase = target: T1, ATR kinase (Homo sapiens, UniProt Q13535); test: ATR inhibition assay (mobility shift assay, FAM-RAD17 phosphorylation); assay type: biochemical; conditions: substrate FAM-RAD17, ATR kinase (Eurofins)
T1 construct: purchased Eurofins 14-953
Description: Assay 1: ATR Inhibition Assay
The assay was developed and conducted at Chempartner. All the test compounds were dissolved in 100% DMSO at concentration of 20 mM, then prepare compounds and conducted the assay as follows:
1) Transfer 80 µl20 mM compound to 40 µl of 100% DMSO in a 96-well plate.
2) Serially dilute the compound by transferring 20 µl to 60 µl of 100% DMSO in the next well and so forth for a total of 10 concentrations.
3) Add 100 µl of 100% DMSO to two empty wells for no compound control and no enzyme control in the same 96-well plate. Mark the plate as source plate.
4) Transfer 40 µl of compound from source plate to a new 384-well plate as the intermediate plate.
5) Transfer 60 nl compounds to assay plate by Echo.
No. D14JP007N) into Kinase base buffer (50 mM HEPES, pH 7.5; 0.0015% Brij-35; 0.01% Triton) to prepare 2x enzyme solution, then add 10 µl of 2x enzyme solution to each well of the 384-well assay plate, incubate at room temperature for 10 min.
8) Incubate at 28° C. for specified period of time. Add 40 µl of stop buffer (100 mM HEPES, pH 7.5; 0.015% Brij-35; 0.2% Coating Reagent #3; 50 mM EDTA) to stop reaction.
9) Collect data on Caliper. Convert conversion values to inhibition values.
wherein “max” stands for DMSO control; “min” stands for low control.
Fit the data in XLFit excel add-in version 5.4.0.8 to obtain IC50 values. Equation used is: […]
wherein X means concentration in a format not transformed to logarithms.

T1 sequence (Q13535 whole entry): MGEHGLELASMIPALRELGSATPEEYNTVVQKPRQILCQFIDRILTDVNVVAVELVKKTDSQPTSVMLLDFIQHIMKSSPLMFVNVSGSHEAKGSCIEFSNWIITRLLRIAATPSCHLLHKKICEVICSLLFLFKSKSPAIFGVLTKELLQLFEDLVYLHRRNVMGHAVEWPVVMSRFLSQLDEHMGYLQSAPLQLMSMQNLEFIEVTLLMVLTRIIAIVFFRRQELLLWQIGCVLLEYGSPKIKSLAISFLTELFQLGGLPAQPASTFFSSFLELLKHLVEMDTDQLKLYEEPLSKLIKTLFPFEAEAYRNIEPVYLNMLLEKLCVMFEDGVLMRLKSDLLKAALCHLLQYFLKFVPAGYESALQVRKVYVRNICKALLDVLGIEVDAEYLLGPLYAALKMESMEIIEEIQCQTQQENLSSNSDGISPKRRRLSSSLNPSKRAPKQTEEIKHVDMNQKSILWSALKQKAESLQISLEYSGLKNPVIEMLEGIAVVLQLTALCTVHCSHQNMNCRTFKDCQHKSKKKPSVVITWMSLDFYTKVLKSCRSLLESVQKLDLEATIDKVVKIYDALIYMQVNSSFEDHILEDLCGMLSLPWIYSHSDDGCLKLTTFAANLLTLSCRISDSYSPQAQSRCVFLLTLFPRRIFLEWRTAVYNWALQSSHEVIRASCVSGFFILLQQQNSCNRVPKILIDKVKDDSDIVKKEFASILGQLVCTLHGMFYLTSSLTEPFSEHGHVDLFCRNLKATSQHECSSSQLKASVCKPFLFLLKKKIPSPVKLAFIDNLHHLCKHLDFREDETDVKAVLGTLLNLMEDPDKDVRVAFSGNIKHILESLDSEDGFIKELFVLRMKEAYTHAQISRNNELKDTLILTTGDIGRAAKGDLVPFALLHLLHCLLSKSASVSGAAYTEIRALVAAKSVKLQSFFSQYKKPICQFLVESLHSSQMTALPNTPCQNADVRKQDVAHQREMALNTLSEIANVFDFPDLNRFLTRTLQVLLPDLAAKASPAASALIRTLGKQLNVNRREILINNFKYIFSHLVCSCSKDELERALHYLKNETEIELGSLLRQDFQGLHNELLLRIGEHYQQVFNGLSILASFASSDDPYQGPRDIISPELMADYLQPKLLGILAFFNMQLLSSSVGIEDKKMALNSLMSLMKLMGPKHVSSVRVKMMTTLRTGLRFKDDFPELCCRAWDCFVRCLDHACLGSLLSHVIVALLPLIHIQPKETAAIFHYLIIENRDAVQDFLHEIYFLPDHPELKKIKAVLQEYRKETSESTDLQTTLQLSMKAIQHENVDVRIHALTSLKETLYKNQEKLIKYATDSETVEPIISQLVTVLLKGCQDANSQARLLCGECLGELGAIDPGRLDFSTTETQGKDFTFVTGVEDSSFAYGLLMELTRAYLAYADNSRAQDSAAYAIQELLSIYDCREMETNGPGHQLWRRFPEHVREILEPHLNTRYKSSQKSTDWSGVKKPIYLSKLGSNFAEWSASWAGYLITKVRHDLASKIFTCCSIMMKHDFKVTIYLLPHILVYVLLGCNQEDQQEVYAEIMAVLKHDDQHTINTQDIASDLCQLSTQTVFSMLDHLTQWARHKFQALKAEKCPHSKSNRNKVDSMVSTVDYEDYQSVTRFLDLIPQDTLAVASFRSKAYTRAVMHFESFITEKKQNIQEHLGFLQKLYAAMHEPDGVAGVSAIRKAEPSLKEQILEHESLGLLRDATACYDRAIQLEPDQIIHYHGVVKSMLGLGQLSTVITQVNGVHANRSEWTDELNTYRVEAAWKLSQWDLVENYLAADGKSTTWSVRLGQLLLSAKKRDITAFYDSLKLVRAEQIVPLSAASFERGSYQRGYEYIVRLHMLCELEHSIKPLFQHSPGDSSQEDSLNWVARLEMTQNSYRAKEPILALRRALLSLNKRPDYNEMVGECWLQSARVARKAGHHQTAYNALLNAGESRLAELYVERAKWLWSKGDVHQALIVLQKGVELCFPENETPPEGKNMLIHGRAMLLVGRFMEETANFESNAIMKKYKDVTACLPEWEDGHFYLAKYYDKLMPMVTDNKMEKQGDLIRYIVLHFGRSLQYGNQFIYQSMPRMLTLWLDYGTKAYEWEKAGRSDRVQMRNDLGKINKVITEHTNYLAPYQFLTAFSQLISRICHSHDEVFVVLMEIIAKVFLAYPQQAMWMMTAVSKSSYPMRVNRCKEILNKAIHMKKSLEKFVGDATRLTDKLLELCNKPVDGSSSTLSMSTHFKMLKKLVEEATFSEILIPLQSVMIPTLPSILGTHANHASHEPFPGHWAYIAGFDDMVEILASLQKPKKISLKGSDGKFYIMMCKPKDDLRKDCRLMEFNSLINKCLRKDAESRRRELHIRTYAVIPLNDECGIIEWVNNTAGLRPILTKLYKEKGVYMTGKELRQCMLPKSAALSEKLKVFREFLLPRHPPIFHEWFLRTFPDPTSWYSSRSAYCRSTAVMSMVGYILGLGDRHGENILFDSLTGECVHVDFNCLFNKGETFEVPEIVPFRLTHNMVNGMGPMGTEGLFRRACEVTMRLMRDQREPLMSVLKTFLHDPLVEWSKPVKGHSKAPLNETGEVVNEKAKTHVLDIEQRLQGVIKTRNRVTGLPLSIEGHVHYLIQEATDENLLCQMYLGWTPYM
T1 sequence (Q8WXE1 whole entry partner): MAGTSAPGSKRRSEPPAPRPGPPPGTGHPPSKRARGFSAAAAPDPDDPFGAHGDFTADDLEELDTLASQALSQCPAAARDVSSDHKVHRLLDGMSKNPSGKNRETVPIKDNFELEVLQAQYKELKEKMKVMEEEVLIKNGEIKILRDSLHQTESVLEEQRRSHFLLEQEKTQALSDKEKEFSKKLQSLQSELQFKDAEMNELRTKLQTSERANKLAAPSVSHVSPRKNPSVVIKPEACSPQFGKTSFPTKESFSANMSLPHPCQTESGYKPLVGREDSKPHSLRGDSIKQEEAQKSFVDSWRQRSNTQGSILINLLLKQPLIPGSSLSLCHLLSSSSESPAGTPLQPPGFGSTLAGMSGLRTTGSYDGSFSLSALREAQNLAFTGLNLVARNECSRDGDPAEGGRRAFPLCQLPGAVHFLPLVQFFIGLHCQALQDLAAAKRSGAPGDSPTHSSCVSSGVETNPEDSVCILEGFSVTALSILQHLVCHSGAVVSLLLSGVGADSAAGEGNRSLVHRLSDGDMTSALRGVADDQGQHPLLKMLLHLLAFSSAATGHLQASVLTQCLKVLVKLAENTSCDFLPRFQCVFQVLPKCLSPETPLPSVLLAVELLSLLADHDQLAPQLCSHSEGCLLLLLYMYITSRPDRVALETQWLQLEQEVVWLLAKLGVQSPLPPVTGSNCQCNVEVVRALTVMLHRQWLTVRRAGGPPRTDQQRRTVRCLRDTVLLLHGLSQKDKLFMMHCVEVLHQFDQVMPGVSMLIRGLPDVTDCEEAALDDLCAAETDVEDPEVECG

IC50 [1] | IC50 (ATR kinase) | Compound
872 nM | 28 nM | C[C@@H]1COCCN1c1cc(C(C)(C)S(C)(=O)=O)nc(Nc2ccn[nH]2)n1 [Compound 7, (R)-4-(3-methylmorpholino)-6-(2-(methylsulfonyl)propan-2-yl)-N-(1H-pyrazol-5-yl)pyrimidin-2-amine]
538 nM | 22 nM | Cc1cc(Nc2nc(N3CCOC[C@H]3C)cc(C3(C#N)CC3)n2)[nH]n1 [Compound 9, (R)-1-(2-((3-methyl-1H-pyrazol-5-yl)amino)-6-(3-methylmorpholino)pyrimidin-4-yl)cyclopropanecarbonitrile]
263 nM | 10 nM | Cc1cc(Nc2nc(N3CCOC[C@H]3C)cc(C(C)(C)C#N)n2)[nH]n1 [Compound 10, (R)-2-methyl-2-(2-((3-methyl-1H-pyrazol-5-yl)amino)-6-(3-methylmorpho-lino)pyrimidin-4-yl)propanenitrile]
807 nM |  | C[C@@H]1COCCN1c1cc(N(C)S(C)(=O)=O)cc(Nc2ccn[nH]2)n1 [Compound 13, (R)-N-(2-((1H-pyrazol-5-yl)amino)-6-(3-methylmorpholino)pyridin-4-yl)-N-methylmethanesulfonamide]
594 nM |  | C[C@@H]1COCCN1c1cc(C2(S(C)(=O)=O)CC2)c(CO)c(Nc2ccn[nH]2)n1 [Compound 17, (R)-(2-((1H-pyrazol-5-yl)amino)-6-(3-methylmorpholino)-4-(1-(methylsulfo-nyl)cyclopropyl)pyridin-3-yl)methanol]
428 nM | 17 nM | C[C@@H]1COCCN1c1cc(C(C)(C)C#N)cc(Nc2ccn[nH]2)n1 [Compound 24, (R)-2-(2-((1H-pyrazol-5-yl)amino)-6-(3-methylmorpholino)pyridin-4-yl)-2-methylpropanenitrile]
966 nM |  | Cc1cc(Nc2cc(C3(S(C)(=O)=O)CCOCC3)cc(N3CCOC[C@H]3C)n2)[nH]n1 [Compound 36, (R)-N-(3-methyl-1H-pyrazol-5-yl)-6-(3-methylmorpholino)-4-(4-(methylsulfonyl)tetrahydro-2H-pyran-4-yl)pyridin-2-amine]
1010 nM |  | C[C@@H]1COCCN1c1cc(C2(S(C)(=O)=O)CCOCC2)cc(Nc2ccn[nH]2)n1 [Compound 45, (R)-6-(3-methylmorpholino)-4-(4-(methylsulfonyl)tetrahydro-2H-pyran-4-yl)-N-(1H-pyrazol-5-yl)pyridin-2-amine]

Continued, compound first:

Compound | IC50 [1] | IC50 (ATR kinase)
C[C@@H]1COCCN1c1cc(C2(S(C)(=O)=O)CC2)cc(Nc2ccn[nH]2)n1 [Compound 1, (R)-6-(3-methylmorpholino)-4-(1-(methylsulfonyl)cyclopropyl)-N-(1H-pyrazol-5-yl)pyridin-2-amine] | 334 nM | 14.4 nM
Cc1cnn(C)c1-c1cc(Nc2ccn[nH]2)nc(N2CCOC[C@H]2C)c1 [Compound 4, (R)-4-(1,4-dimethyl-1H-pyrazol-5-yl)-6-(3-methylmorpholino)-N-(1H-pyrazol-5-yl)pyridin-2-amine] | 385 nM | 16.3 nM
C[C@@H]1COCCN1c1cc(C2(S(C)(=O)=O)CC2)nc(Nc2ccn[nH]2)n1 [Compound 5, (R)-4-(3-methylmorpholino)-6-(1-(methylsulfonyl)cyclopropyl)-N-(1H-pyrazol-5-yl)pyrimidin-2-amine] | 653 nM | 
Cc1cc(Nc2nc(N3CCOC[C@H]3C)cc(C3(S(C)(=O)=O)CC3)n2)[nH]n1 [Compound 6, 4-(1-methanesulfonylcyclopropyl)-N-(3-methyl-1H-pyrazol-5-yl)-6-[(3R)-3-methylmorpholin-4-yl]pyrimidin-2-amine] | 401 nM | 16 nM
Cc1cc(Nc2nc(N3CCOC[C@H]3C)cc(C(C)(C)S(C)(=O)=O)n2)[nH]n1 [Compound 8, (R)-N-(3-methyl-1H-pyrazol-5-yl)-4-(3-methylmorpholino)-6-(2-(methylsulfonyl)propan-2-yl)pyrimidin-2-amine] | 398 nM | 13.2 nM
C[C@@H]1COCCN1c1cc(C2(S(C)(=O)=O)CCOCC2)nc(Nc2ccn[nH]2)n1 [Compound 11, (R)-4-(3-methylmorpholino)-6-(4-(methylsulfonyl)tetrahydro-2H-pyran-4-yl)-N-(1H-pyrazol-5-yl)pyrimidin-2-amine] | 1310 nM | 
Cc1cc(Nc2nc(N3CCOC[C@H]3C)cc(C3(S(C)(=O)=O)CCOCC3)n2)[nH]n1 [Compound 12, (R)-N-(3-methyl-1H-pyrazol-5-yl)-4-(3-methylmorpholino)-6-(4-(methylsulfonyl)tetrahydro-2H-pyran-4-yl)pyrimidin-2-amine] | 611 nM | 13 nM
Cc1cnn(C)c1-c1cc(N2CCOC[C@H]2C)nc(Nc2ccn[nH]2)c1CO [Compound 15, (R)-(2-((1H-pyrazol-5-yl)amino)-4-(1,4-dimethyl-1H-pyrazol-5-yl)-6-(3-methylmorpholino)pyridin-3-yl)methanol] | 515 nM | 
Cc1cc(Nc2cc(C3(S(C)(=O)=O)CC3)cc(N3CCOC[C@H]3C)n2)[nH]n1 [Compound 19, 4-(1-methanesulfonylcyclopropyl)-N-(3-methyl-1H-pyrazol-5-yl)-6-[(3R)-3-methylmorpholin-4-yl]pyridin-2-amine] | 225 nM | 10.3 nM
Cc1noc(C)c1-c1cc(Nc2ccn[nH]2)nc(N2CCOC[C@H]2C)c1 [Compound 22, (R)-4-(3,5-dimethylisoxazol-4-yl)-6-(3-methylmorpholino)-N-(1H-pyrazol-5-yl)pyridin-2-amine] | 192 nM | 
Cc1cc(Nc2cc(-c3c(C)nnn3C)cc(N3CCOC[C@H]3C)n2)[nH]n1 [Compound 23, 4-(dimethyl-1H-1,2,3-triazol-5-yl)-N-(3-methyl-1H-pyrazol-5-yl)-6-[(3R)-3-methylmorpholin-4-yl]pyridin-2-amine] | 388 nM | 15.5 nM
Cc1cnn(C)c1-c1cc(N2CCOC[C@H]2C)nc(Nc2ccn[nH]2)c1F [Compound 33, (R)-4-(1,4-dimethyl-1H-pyrazol-5-yl)-3-fluoro-6-(3-methylmorpholino)-N-(1H-pyrazol-5-yl)pyridin-2-amine] | 842 nM | 
C[C@@H]1COCCN1c1cc(C2(S(C)(=O)=O)CC2)c(F)c(Nc2ccn[nH]2)n1 [Compound 34, (R)-3-fluoro-6-(3-methylmorpholino)-4-(1-(methylsulfonyl)cyclopropyl)-N-(1H-pyrazol-5-yl)pyridin-2-amine] | 442 nM | 
C[C@@H]1COCCN1c1cc(C2(C#N)CCCC2)cc(Nc2ccn[nH]2)n1 [Compound 37, 1-{2-[(3R)-3-methylmorpholin-4-yl]-6-[(1H-pyrazol-5-yl)amino]pyridin-4-yl}cyclopentane-1-carbonitrile] | 800 nM | 
C[C@@H]1COCCN1c1cc(C2(C#N)CCOCC2)cc(Nc2ccn[nH]2)n1 [Compound 39, (R)-4-(2-((1H-pyrazol-5-yl)amino)-6-(3-methylmorpholino)pyridin-4-yl) tetrahydro-2H-pyran-4-carbonitrile] | 844 nM | 
C[C@@H]1COCCN1c1cc(C2(C#N)CCCC2)nc(Nc2ccn[nH]2)n1 [Compound 40, (R)-1-(2-((1H-pyrazol-5-yl)amino)-6-(3-methylmorpholino)pyrimidin-4-yl) cyclopentane-1-carbonitrile] | 698 nM | 
Cc1cc(Nc2cc(-c3c(C)cnn3C)cc(N3CCOC[C@H]3C)n2)[nH]n1 [Compound 46, (R)-4-(1,4-dimethyl-1H-pyrazol-5-yl)-N-(3-methyl-1H-pyrazol-5-yl)-6-(3-methylmorpholino)pyridin-2-amine] | 410 nM | 
Cc1cc(Nc2cc(-c3c(C)noc3C)cc(N3CCOC[C@H]3C)n2)[nH]n1 [Compound 47, (R)-4-(3,5-dimethylisoxazol-4-yl)-N-(3-methyl-1H-pyrazol-5-yl)-6-(3-methylmorpholino)pyridin-2-amine] | 390 nM | 
